Measurements reported in patent publication US20210101881A1 (Ancureall Pharmaceutical (Shanghai) Co., Ltd., priority 2018, published 2021).
pIC50: −log10 of the molar value. Where two headings read alike, the source gives them in different places.

System: MOLM13 cells
Test: Growth inhibition of CDK9-positive cell line MOLM13 in vitro (CCK8/MTT assay)
Assay type: cell-based, human
Settings: Homo sapiens
Procedure: 1. MOLM13 cell line and cell culture MOLM13 is a CDK9-positive human acute myeloid leukemia cell line from DMSZ. Suspension culture was carried out in RPMI1640 (Gibco) medium with 10% fetal bovine serum (Gibco), 1% penicillin-streptomycin and 2 mM glutamine.
Suspended MOLM-13 cells in logarithmic growth phase were collected by centrifugation (1700 rpm, 3 minutes), the supernatant was discarded, and the cells were counted. A solution with a cell concentration of 2×10^5 cells per milliliter was formulated and inoculated in a 96-well plate (Corning) with 100 microliters per well. The plate was incubated at 37° C., 5% CO2 overnight. On the next day, the test compound was added to the cultured cells in two parallel wells. […]
The present compound and the control compounds were respectively dissolved in DMSO (Sigma).
When the solvent control well became dark yellow, the OD450 nm absorption value was measured, and the cell growth rate was calculated according to the following formula. Cell growth rate %=100*(T−T0)/(C−T0), wherein T=the optical density value of the drug-treated well—the optical density value of the blank control well, T0=the optical density value of the well before drug treatment—the optical density value of the blank control well, C=the optical density value of the solvent control well—the optical density value of the blank control well. […] The assay was repeated three times, and the data was subjected to a biological statistical analysis.

[1] = MOLM-13, MOLM13 cells, cultured 3 to 6 days, CCK8, read-out: IC50 of the compound for inhibiting cell growth, MOLM13 cells
[2] = MOLM-13, read-out: IC50 of the compound for inhibiting cell growth, MOLM13 cells

| SMILES | pIC50 [1] | pIC50 [2] |
| --- | --- | --- |
| COc1cc(F)ccc1-c1cc(Nc2cc(CS(C)(=N)=O)ccn2)ncc1F (stereo not drawn) [BAY1251125, reference compound] | 7.00 to 8.00 | – |
| NC(=O)c1cn(-c2ccnc(Nc3ccc(F)c(Br)c3)n2)c2ccccc12 [Compound 1, 1-[2-(3-bromo-4-fluoro-phenylamino)-pyrimidin-4-yl]-1H-indole-3-carboxamide] | < 6.00 | – |
| NC(=O)c1cn(-c2ccnc(Nc3ccc(C(F)(F)F)c(Cl)c3)n2)c2ccccc12 [Compound 2, 1-[2-(3-chloro-4-trifluoromethyl-phenylamino)-pyrimidin-4-yl]-1H-indole-3-carboxamide] | < 6.00 | – |
| NC(=O)c1cn(-c2ccnc(Nc3cccc(F)c3Cl)n2)c2ccccc12 [Compound 3, 1-[2-(2-chloro-3-fluoro-phenylamino)-pyrimidin-4-yl]-1H-indole-3-carboxamide] | < 6.00 | – |
| NC(=O)c1cn(-c2ccnc(Nc3cc(F)cc(C(F)(F)F)c3)n2)c2ccccc12 [Compound 4, 1-[2-(3-fluoro-5-trifluoromethyl-phenylamino)-pyrimidin-4-yl]-1H-indole-3-carboxamide] | < 6.00 | – |
| COc1ccc(Nc2nccc(-n3cc(C(N)=O)c4ccccc43)n2)cc1OC [Compound 5, 1-[2-(3,4-methoxy-phenylamino)-pyrimidin-4-yl]-1H-indole-3-carboxamide] | < 6.00 | – |
| NC(=O)c1cn(-c2ccnc(Nc3ccc(F)c([N+](=O)[O-])c3)n2)c2ccccc12 [Compound 6, 1-[2-(4-fluoro-3-nitro-phenylamino)-pyrimidin-4-yl]-1H-indole-3-carboxamide] | < 6.00 | – |
| COc1cc(F)c([N+](=O)[O-])cc1Nc1nccc(-n2cc(C(N)=O)c3ccccc32)n1 [Compound 7, 1-[2-(4-fluoro-2-methoxy-5-nitro-phenylamino)-pyrimidin-4-yl]-1H-indole-3-carboxamide] | 7.00 to 8.00 | – |
| CN(C)CCNc1ccc(Nc2nccc(-n3cc(C(N)=O)c4ccccc43)n2)cc1 [Compound 8, 1-{2-[4-(2-dimethylamino-ethylamino)-phenylamino]-pyrimidin-4-yl}-1H-indole-3-carboxamide] | 7.00 to 8.00 | – |
| NC(=O)c1cn(-c2ccnc(Nc3ccc(NCCN4CCOCC4)cc3)n2)c2ccccc12 [Compound 9, 1-{2-[4-(2-morpholin-4-yl-ethylamino)-phenylamino]-pyrimidin-4-yl}-1H-indole-3-carboxamide] | 7.00 to 8.00 | – |
| NC(=O)c1cn(-c2ccnc(Nc3ccc(NCCN4CCCCC4)cc3)n2)c2ccccc12 [Compound 10, 1-{2-[4-(2-piperidin-1-yl-ethylamino)-phenylamino]-pyrimidin-4-yl}-1H-indole-3-carboxamide] | 7.00 to 8.00 | – |
| CN1CCN(CCNc2ccc(Nc3nccc(-n4cc(C(N)=O)c5ccccc54)n3)cc2)CC1 [Compound 11, 1-(2-{4-[2-(4-methyl-piperazin-1-yl)-ethylamino]-phenylamino}-pyrimidin-4-yl)-1H-indole-3-carboxamide] | 7.00 to 8.00 | – |
| NC(=O)c1cn(-c2ccnc(Nc3ccc(NC4CCNCC4)cc3)n2)c2ccccc12 [Compound 12, 1-{2-[4-(piperidin-4-amino)-phenylamino]-pyrimidin-4-yl}-1H-indole-3-carboxamide] | 7.00 to 8.00 | – |
| NC(=O)c1cn(-c2ccnc(Nc3ccc(NCCN4CCCC4)cc3)n2)c2ccccc12 [Compound 13, 1-{2-[4-(2-pyrrolidin-1-yl-ethylamino)-phenylamino]-pyrimidin-4-yl}-1H-indole-3-carboxamide] | 7.00 to 8.00 | – |
| NC(=O)c1cn(-c2ccnc(Nc3ccc(CN4CCOCC4)cc3)n2)c2ccccc12 [Compound 14, 1-[2-(4-morpholin-4-methyl-phenylamino)-pyrimidin-4-yl]-1H-indole-3-carboxamide] | 7.00 to 8.00 | – |
| CC(=O)N1CCN(Cc2ccc(Nc3nccc(-n4cc(C(N)=O)c5ccccc54)n3)cc2)CC1 [Compound 15, 1-{2-[4-(4-acetyl-piperazin-1-methyl)-phenylamino]-pyrimidin-4-yl}-1H-indole-3-carboxamide] | 7.00 to 8.00 | – |
| COc1ccc(Nc2nccc(-n3cc(C(N)=O)c4ccccc43)n2)cc1 [Compound 17, 1-[2-(4-methoxy-phenylamino)-pyrimidin-4-yl]-1H-indole-3-carboxamide] | 6.00 to 7.00 | – |
| CN1CCN(CCOc2ccc(Nc3nccc(-n4cc(C(N)=O)c5ccccc54)n3)cc2)CC1 [Compound 18, 1-(2-{4-[2-(4-methyl-piperazin-1-yl)-ethoxy]-phenylamino}-pyrimidin-4-yl)-1H-indole-3-carboxamide] | – | 7.00 to 8.00 |

| SMILES | pIC50 [1] | pIC50 [2] |
| --- | --- | --- |
| CN(C)CCOc1ccc(Nc2nccc(-n3cc(C(N)=O)c4ccccc43)n2)cc1 [Compound 19, 1-{2-[4-(2-dimethylamino-ethoxy)-phenylamino]-pyrimidin-4-yl}-1H-indole-3-carboxamide] | 7.00 to 8.00 | – |
| NC(=O)c1cn(-c2ccnc(Nc3ccc(OCCN4CCCC4)cc3)n2)c2ccccc12 [Compound 20, 1-{2-[4-(2-pyrrolidin-1-yl-ethoxy)-phenylamino]-pyrimidin-4-yl}-1H-indole-3-carboxamide] | 7.00 to 8.00 | – |
| NC(=O)c1cn(-c2ccnc(Nc3ccc(OCCN4CCOCC4)cc3)n2)c2ccccc12 [Compound 21, 1-{2-[4-(2-morpholin-4-yl-ethoxy)-phenylamino]-pyrimidin-4-yl}-1H-indole-3-carboxamide] | 7.00 to 8.00 | – |
| NC(=O)c1cn(-c2ccnc(Nc3ccc(OCCN4CCNCC4)cc3)n2)c2ccccc12 [Compound 22, 1-(2-{4-[2-(4-piperazin-1-yl)-ethoxy]-phenylamino]-pyrimidin-4-yl}-1H-indole-3-carboxamide] | 7.00 to 8.00 | – |
| CN(C)CCSc1ccc(Nc2nccc(-n3cc(C(N)=O)c4ccccc43)n2)cc1 [Compound 23, 1-{2-[4-(2-dimethylamino-ethylthio)-phenylamino]-pyrimidin-4-yl}-1H-indole-3-carboxamide] | 7.00 to 8.00 | – |
| NC(=O)c1cn(-c2ccnc(Nc3ccc(N4CCC(N5CCCCC5)CC4)cc3)n2)c2ccccc12 [Compound 24, 1-[2-(4-[1,4′]bipiperidin-1′-yl-phenylamino)-pyrimidin-4-yl]-1H-indole-3-carboxamide] | 7.00 to 8.00 | – |
| NC(=O)c1cn(-c2ccnc(Nc3ccc(N4CCN(CCO)CC4)cc3)n2)c2ccccc12 [Compound 25, 1-(2-{4-[4-(2-hydroxy-ethyl)-piperazin-1-yl]-phenylamino}-pyrimidin-4-yl)-1H-indole-3-carboxamide] | 7.00 to 8.00 | – |
| COCCN1CCN(c2ccc(Nc3nccc(-n4cc(C(N)=O)c5ccccc54)n3)cc2)CC1 [Compound 26, 1-(2-{4-[4-(2-methoxy-ethyl)-piperazin-1-yl]-phenylamino}-pyrimidin-4-yl)-1H-indole-3-carboxamide] | 7.00 to 8.00 | – |
| NC(=O)c1cn(-c2ccnc(Nc3ccc(N4CCNCC4)cc3)n2)c2ccccc12 [Compound 27, 1-[2-(4-piperazin-1-yl-phenylamino)-pyrimidin-4-yl]-1H-indole-3-carboxamide] | – | 8.00 to 9.00 |
| Cc1cc(Nc2nccc(-n3cc(C(N)=O)c4ccccc43)n2)ccc1N1CCNCC1 [Compound 28, 1-[2-(3-methyl-4-piperazin-1-yl-phenylamino)-pyrimidin-4-yl]-1H-indole-3-carboxamide] | 8.00 to 9.00 | – |
| NC(=O)c1cn(-c2ccnc(Nc3ccc(N4CCNCC4)cc3)n2)c2cccc(F)c12 [Compound 29, 4-fluoro-1-[2-(4-piperazin-1-yl-phenylamino)-pyrimidin-4-yl]-1H-indole-3-carboxamide] | 7.00 to 8.00 | – |
| NC(=O)c1cn(-c2ccnc(Nc3ccc(N4CCNCC4)cc3)n2)c2cc(F)ccc12 [Compound 30, 6-fluoro-1-[2-(4-piperazin-1-yl-phenylamino)-pyrimidin-4-yl]-1H-indole-3-carboxamide] | 8.00 to 9.00 | – |
| NC(=O)c1cn(-c2ccnc(Nc3ccc(N4CCNCC4)cc3)n2)c2c(F)cccc12 [Compound 31, 7-fluoro-1-[2-(4-piperazin-1-yl-phenylamino)-pyrimidin-4-yl]-1H-indole-3-carboxamide] | 7.00 to 8.00 | – |
| NC(=O)c1cn(-c2ccnc(Nc3ccc(N4CCNCC4)cc3)n2)c2ccc(Br)cc12 [Compound 32, 5-bromo-1-[2-(4-piperazin-1-yl-phenylamino)-pyrimidin-4-yl]-1H-indole-3-carboxamide] | 7.00 to 8.00 | – |
| COc1ccc2c(c1)c(C(N)=O)cn2-c1ccnc(Nc2ccc(N3CCNCC3)cc2)n1 [Compound 33, 5-methoxy-1-[2-(4-piperazin-1-yl-phenylamino)-pyrimidin-4-yl]-1H-indole-3-carboxamide] | 8.00 to 9.00 | – |
| NC(=O)c1cn(-c2nc(Nc3ccc(N4CCNCC4)cc3)ncc2Cl)c2ccccc12 [Compound 34, 1-[5-chloro-2-(4-piperazin-1-yl-phenylamino)-pyrimidin-4-yl]-1H-indole-3-carboxamide] | > 9.00 | – |
| NC(=O)c1cn(-c2nc(Nc3ccc(N4CCNCC4)cc3)ncc2F)c2ccccc12 [Compound 35, 1-[5-fluoro-2-(4-piperazin-1-yl-phenylamino)-pyrimidin-4-yl]-1H-indole-3-carboxamide] | > 9.00 | – |
| COc1cnc(Nc2ccc(N3CCNCC3)cc2)nc1-n1cc(C(N)=O)c2ccccc21 [Compound 36, 1-[5-methoxy-2-(4-piperazin-1-yl-phenylamino)-pyrimidin-4-yl]-1H-indole-3-carboxamide] | 8.00 to 9.00 | – |
